Assay [1] has as its target T1, Focal Adhesion Kinase (full-length Flag-tagged human FAK) (Homo sapiens, UniProt Q05397).
T1 construct: a purified recombinant full-length Flag-tagged human FAK protein; Flag; made in house; host or cells: baculovirus infected insect cells
The assay is described as follows: in vitro FAK ELISA kinase assay. The settings on record: compound 10 uM; ATP 2 uM; read-out: FAK % Inhib ave: 10 uM. Type of assay: biochemical. The method in brief: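 Plate-coated GST fusion of the 73-residue region around Tyr397 phosphorylated by full-length Flag-tagged human FAK from baculovirus-infected insect cells, with 2 μM ATP in Mg/Mn HEPES pH 7.5, 1 h at 30 °C. Phosphotyrosine detected by HRP-anti-pTyr ELISA with TMB read-out. Compounds screened at 10 μM or titrated from 50 μM in half-log steps for IC50, BSA-substrate background subtracted.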

Assay [2] concerns the target T2, CAK complex (human Cdk7, human Cyclin H, MAT-1) (Homo sapiens, UniProt P50613).
T2 construct: made in house; host or cells: SF-900 insect cells co-infected with Flag-Cdk7 and Bab-Cyclin H baculoviruses
The assay is described as follows: in vitro time-resolved-fluorescence assay for the CAK kinase activity. Conditions: compound 20 uM; read-out: CAK % inhib; 20 uM. It is filed as biochemical. Put shortly:
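Kinase activity of the human CAK complex (Flag-tagged Cdk7, Cyclin H, MAT-1), purified from co-infected SF-900 insect cells by Flag-M2 immunoaffinity, was measured by time-resolved fluorescence. In black glutathione-coated 96-well plates, 500 ng GST-CTD substrate with 22 uM ATP was mixed with compound in 30% DMSO/25 mM Hepes and 250 ng CAK. Plates were incubated 20 minutes at 30° C, then stopped with EDTA, bound overnight and washed. A Europium-labeled antibody detected serine-phosphorylated CTD.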

Molecules are shown by their SMILES.

T1 sequence (Q05397 whole entry): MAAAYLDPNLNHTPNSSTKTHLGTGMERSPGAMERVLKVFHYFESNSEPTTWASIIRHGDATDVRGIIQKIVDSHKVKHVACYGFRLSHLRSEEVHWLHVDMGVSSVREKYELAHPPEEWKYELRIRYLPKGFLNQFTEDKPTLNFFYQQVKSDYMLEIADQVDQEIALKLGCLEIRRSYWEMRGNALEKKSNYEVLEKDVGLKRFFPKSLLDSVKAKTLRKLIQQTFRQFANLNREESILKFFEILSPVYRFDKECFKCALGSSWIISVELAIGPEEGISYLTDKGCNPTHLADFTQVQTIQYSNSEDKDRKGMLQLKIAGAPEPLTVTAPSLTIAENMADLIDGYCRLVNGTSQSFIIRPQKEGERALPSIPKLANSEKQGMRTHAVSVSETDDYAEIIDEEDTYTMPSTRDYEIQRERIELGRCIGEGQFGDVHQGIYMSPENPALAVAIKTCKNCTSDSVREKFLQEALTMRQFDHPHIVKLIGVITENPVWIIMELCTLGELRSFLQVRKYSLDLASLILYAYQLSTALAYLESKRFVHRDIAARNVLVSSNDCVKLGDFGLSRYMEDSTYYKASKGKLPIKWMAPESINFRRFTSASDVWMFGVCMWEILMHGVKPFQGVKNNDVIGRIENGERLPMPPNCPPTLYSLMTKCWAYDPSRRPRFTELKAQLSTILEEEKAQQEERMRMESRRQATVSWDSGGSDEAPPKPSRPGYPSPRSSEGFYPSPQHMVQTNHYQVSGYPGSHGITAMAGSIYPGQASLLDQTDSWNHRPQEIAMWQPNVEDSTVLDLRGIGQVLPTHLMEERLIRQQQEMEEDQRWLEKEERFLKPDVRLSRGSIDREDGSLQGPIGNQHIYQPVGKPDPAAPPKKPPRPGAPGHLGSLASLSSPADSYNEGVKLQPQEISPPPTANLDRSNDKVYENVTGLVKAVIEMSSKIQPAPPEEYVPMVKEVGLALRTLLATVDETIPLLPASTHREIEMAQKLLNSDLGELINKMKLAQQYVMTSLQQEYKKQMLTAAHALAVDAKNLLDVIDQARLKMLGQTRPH
T2 sequence (P50613 with tags, fused parts or gaps): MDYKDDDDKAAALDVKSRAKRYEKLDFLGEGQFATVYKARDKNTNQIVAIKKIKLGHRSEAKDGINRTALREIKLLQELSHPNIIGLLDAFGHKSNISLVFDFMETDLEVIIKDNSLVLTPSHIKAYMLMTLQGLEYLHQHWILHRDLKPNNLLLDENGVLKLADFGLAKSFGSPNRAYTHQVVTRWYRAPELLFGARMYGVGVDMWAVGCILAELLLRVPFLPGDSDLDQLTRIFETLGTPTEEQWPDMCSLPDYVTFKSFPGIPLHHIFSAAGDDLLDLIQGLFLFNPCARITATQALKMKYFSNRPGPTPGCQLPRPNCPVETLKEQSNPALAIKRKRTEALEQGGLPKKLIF
T2 sequence (as listed by the source partner): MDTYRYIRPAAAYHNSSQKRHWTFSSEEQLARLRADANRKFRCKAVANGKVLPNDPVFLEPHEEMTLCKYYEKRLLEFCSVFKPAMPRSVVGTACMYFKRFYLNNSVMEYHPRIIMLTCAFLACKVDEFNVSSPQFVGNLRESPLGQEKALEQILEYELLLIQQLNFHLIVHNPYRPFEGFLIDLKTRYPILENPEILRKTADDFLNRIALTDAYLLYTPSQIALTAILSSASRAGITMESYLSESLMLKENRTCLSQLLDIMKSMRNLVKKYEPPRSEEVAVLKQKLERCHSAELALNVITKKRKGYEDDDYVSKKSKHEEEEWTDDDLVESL

As for `O=C(NCCCn1ccnc1)c1cccc(Nc2ncc3nnn(-c4ccc5c(c4)CCC5)c3n2)c1` [Compound 79, N-(3-Imidazol-1-yl-propyl)-3-(3-indan-5-yl-3H-[1,2,3]triazolo[4,5-d]pyrimidin-5-ylamino)-benzamide], the inhibition at 10 µM in assay [1] amounted to 80%. Also, the inhibition at 20 µM in assay [2] came to 86.6%.
In the same order, the values of `O=C(NCCCN1CCCC1=O)c1cccc(Nc2ncc3nnn(-c4ccc5c(c4)CCC5)c3n2)c1` [Compound 80, 3-(3-Indan-5-yl-3H-[1,2,3]triazolo[4,5-d]pyrimidin-5-ylamino)-N-[3-(2-oxo-pyrrolidin-1-yl)-propyl]-benzamide] are 33.9% and 17.9%.
For `CN1CCN(CCCNC(=O)c2cccc(Nc3ncc4nnn(-c5ccc6c(c5)CCC6)c4n3)c2)CC1` [Compound 81, 3-(3-Indan-5-yl-3H-[1,2,3]triazolo[4,5-d]pyrimidin-5-ylamino)-N-[3-(4-methyl-piperazin-1-yl)-propyl]-benzamide], in that order: 58.1% and 99.7%.
In the same order, the values of `OCCCOc1ccc(Nc2ncc3nnn(-c4ccc5c(c4)CCC5)c3n2)cc1` [Compound 82, 3-[4-(3-Indan-5-yl-3H-[1,2,3]triazolo[4,5-d]pyrimidin-5-ylamino)-phenoxy]-propan-1-ol] are 13.5% and 5.06%.
For the compound `CCN(CC)CCNC(=O)c1ccc(Nc2ncc3nnn(-c4ccc(C5CCCCC5)cc4)c3n2)cc1` [Compound 83, 4-[3-(4-Cyclohexyl-phenyl)-3H-[1,2,3]triazolo[4,5-d]pyrimidin-5-ylamino]-N-(2-diethylamino-ethyl)-benzamide], the inhibition at 10 µM in assay [1] stood at 28.7%. Further, the inhibition at 20 µM in assay [2] turned out to be 5.45%.
For `CCN(CC)CCNC(=O)c1ccc(Nc2ncc3nnn(-c4cccc(-c5cnco5)c4)c3n2)cc1` [Compound 84, N-(2-Diethylamino-ethyl)-4-[3-(3-oxazol-5-yl-phenyl)-3H-[1,2,3]triazolo[4,5-d]pyrimidin-5-ylamino]-benzamide], in that order: 46.6% and -58.9%.
For `c1cc(Nc2ncc3nnn(-c4cccc(-c5cnco5)c4)c3n2)cc(-c2cnco2)c1` [Compound 85, (3-Oxazol-5-yl-phenyl)-[3-(3-oxazol-5-yl-phenyl)-3H-[1,2,3]triazolo[4,5-d]pyrimidin-5-yl]-amine], in that order: 47.8% and 9.49%.
Take `CCCCNS(=O)(=O)c1ccc(OC)c(-n2nnc3cnc(Nc4ccc(C(=O)NCCN(CC)CC)cc4)nc32)c1` [Compound 86, 4-[3-(5-Butylsulfamoyl-2-methoxy-phenyl)-3H-[1,2,3]triazolo[4,5-d]pyrimidin-5-ylamino]-N-(2-diethylamino-ethyl)-benzamide]: the inhibition at 10 µM in assay [1] turned out to be 65.1%. The inhibition at 20 µM in assay [2] amounted to 110%.
For `CCN(CC)CCCOc1ccc(Nc2ncc3nnn(-c4ccc5c(c4)CCC5)c3n2)cc1` [Compound 87, [4-(3-Diethylamino-propoxy)-phenyl]-(3-indan-5-yl-3H-[1,2,3]triazolo[4,5-d]pyrimidin-5-yl)-amine], in that order: 81.5% and 99.5%.
Take `CN(CCO)CCCOc1ccc(Nc2ncc3nnn(-c4ccc5c(c4)CCC5)c3n2)cc1` [Compound 88, 2-({3-[4-(3-Indan-5-yl-3H-[1,2,3]triazolo[4,5-d]pyrimidin-5-ylamino)-phenoxy]-propyl}-methyl-amino)-ethanol]: in assay [1], the inhibition at 10 µM was determined as 92.3%. Also, the inhibition at 20 µM in assay [2] turned out to be 103%.
As for `CN(CCCOc1ccc(Nc2ncc3nnn(-c4ccc5c(c4)CCC5)c3n2)cc1)CC(=O)O` [Compound 89, ({3-[4-(3-Indan-5-yl-3H-[1,2,3]triazolo[4,5-d]pyrimidin-5-ylamino)-phenoxy]-propyl]-methyl-amino)-acetic acid], in assay [1], the inhibition at 10 µM was 73.4%. Besides, in assay [2], the inhibition at 20 µM came out at 97.6%.

For the origin of these results see patent publication US7563781B2, “Triazolopyrimidine derivatives” (Janssen Pharmaceutica NV, priority 2006, dated 2009).
